Patent US10047086B2, “Imidazopyridines and imidazopyrazines as LSD1 inhibitors” (Incyte Corporation, priority 2014, dated 2018)

Biological target: LSD-1 enzyme (Homo sapiens (Human), UniProt O60341)
Experiment: LANCE LSD1/KDM1A demethylase assay (LSD1 histone demethylase biochemical assay)
Details: 1 nM LSD-1 enzyme, 1 hour preincubation at 25° C., 0.4 μM Biotin-labeled Histone H3 peptide substrate
Experimental: LSD1 Histone Demethylase Biochemical Assay
LANCE LSD1/KDM1A demethylase assay-10 μL of 1 nM LSD-1 enzyme (ENZO BML-SE544-0050) in the assay buffer (50 mM Tris, pH 7.5, 0.01% Tween-20, 25 mM NaCl, 5 mM DTT) were preincubated for 1 hour at 25° C. with 0.8 μL compound/DMSO dotted in black 384 well polystyrene plates. […] Reactions were stopped by addition of 10 μL 1× LANCE Detection Buffer (PerkinElmer CR97-100) supplemented with 1.5 nM Eu-anti-unmodified H3K4 Antibody (PerkinElmer TRF0404), and 225 nM LANCE Ultra Streptavidin (PerkinElmer TRF102) along with 0.9 mM Tranylcypromine-HCl (Millipore 616431). After stopping the reactions plates were incubated for 30 minutes and read on a PHERAstar FS plate reader (BMG Labtech).

SMILES	IC50 [nM]
CN(C)C1CCN(c2nc(-c3ccc(C#N)cc3)c(-c3ccc4c(c3)CC(O)C4)n3cncc23)CC1 (racemic) [Example 136, 4-[8-[4-(dimethylamino)piperidin-1-yl]-5-(2-hydroxy-2,3-dihydro-1H-inden-5-yl)imidazo[1,5-a]pyrazin-6-yl]benzonitrile]	≤ 50
Cc1ccc(-c2c(-c3ccc(C#N)cc3)cc(OC[C@@H]3CCNC3)c3cncn23)cc1 [Example 1, 4-{5-(4-methylphenyl)-8-[(3R)-pyrrolidin-3-ylmethoxy]imidazo[1,5-a]pyridin-6-yl}benzonitrile]	≤ 50
Cc1ccc(-c2c(-c3ccc([N+](=O)[O-])cc3)cc(OC[C@@H]3CCNC3)c3cncn23)cc1 [Example 3, 5-(4-methylphenyl)-6-(4-nitrophenyl)-8-[(3R)-pyrrolidin-3-ylmethoxy]imidazo[1,5-a]pyridine]	≤ 50
Cc1ccc(-c2c(-c3ccc(C#N)c(F)c3)cc(OC[C@@H]3CCNC3)c3cncn23)cc1 [Example 4, 2-fluoro-4-{5-(4-methylphenyl)-8-[(3R)-pyrrolidin-3-ylmethoxy]imidazo[1,5-a]pyridin-6-yl}benzonitrile]	≤ 50
Cc1ccc(-c2c(-c3ccc(C#N)cc3F)cc(OC[C@@H]3CCNC3)c3cncn23)cc1 [Example 5, 3-fluoro-4-{5-(4-methylphenyl)-8-[(3R)-pyrrolidin-3-ylmethoxy]imidazo[1,5-a]pyridin-6-yl}benzonitrile]	≤ 50
Cc1ccc(-c2c(-c3ccc(C#N)cc3)cc(OC[C@@H]3CCNC3)c3cncn23)c(F)c1 [Example 8, 4-{5-(2-fluoro-4-methylphenyl)-8-[(3R)-pyrrolidin-3-ylmethoxy]imidazo[1,5-a]pyridin-6-yl}benzonitrile]	≤ 50
CCC1CC=C(c2c(-c3ccc(C#N)cc3)cc(OC[C@@H]3CCNC3)c3cncn23)CC1 (stereo partly drawn) [Example 9, 4-{5-(4-ethylcyclohex-1-en-1-yl)-8-[(3R)-pyrrolidin-3-ylmethoxy]imidazol[1,5-a]pyridin-6-yl}benzonitrile]	≤ 50
Cn1ncc2cc(-c3c(-c4ccc(C#N)cc4)cc(OC[C@@H]4CCNC4)c4cncn34)ccc21 [Example 11, 4-{5-(1-methyl-1H-indazol-5-yl)-8-[(3R)-pyrrolidin-3-ylmethoxy]imidazo[1,5-a]pyridin-6-yl}benzonitrile]	≤ 50
CN1C(=O)Cc2cc(-c3c(-c4ccc(C#N)cc4)cc(OC[C@@H]4CCNC4)c4cncn34)ccc21 [Example 12, 4-{5-(1-methyl-2-oxo-2,3-dihydro-1H-indol-5-yl)-8-[(3R)-pyrrolidin-3-ylmethoxy]imidazo-[1,5-a]pyridin-6-yl}benzonitrile]	≤ 50
CN1CCOc2cc(-c3c(-c4ccc(C#N)cc4)cc(OC[C@@H]4CCNC4)c4cncn34)ccc21 [Example 14, 4-{5-(4-methyl-3,4-dihydro-2H-1,4-benzoxazin-7-yl)-8-[(3R)-pyrrolidin-3-ylmethoxy]imidazo[1,5-a]pyridin-6-yl}benzonitrile]	≤ 50
CN1CCOc2ccc(-c3c(-c4ccc(C#N)cc4)cc(OC[C@@H]4CCNC4)c4cncn34)cc21 [Example 15, 4-{5-(4-methyl-3,4-dihydro-2H-1,4-benzoxazin-6-yl)-8-[(3R)-pyrrolidin-3-ylmethoxy]imidazo[1,5-a]pyridin-6-yl}benzonitrile]	≤ 50
N#Cc1ccc(-c2cc(OC[C@@H]3CCNC3)c3cncn3c2-c2ccc3c(c2)OCCO3)cc1 [Example 16, 4-{5-(2,3-dihydro-1,4-benzodioxin-6-yl)-8-[(3R)-pyrrolidin-3-ylmethoxy]imidazo[1,5-a]pyridin-6-yl}benzonitrile]	≤ 50
N#Cc1ccc(-c2cc(OC[C@@H]3CCNC3)c3cncn3c2-c2ccc(CCN3CCOCC3)cc2)cc1 [Example 18, 4-{5-[4-(2-morpholin-4-ylethyl)phenyl]-8-[(3R)-pyrrolidin-3-ylmethoxy]imidazo[1,5-a]pyridin-6-yl}benzonitrile]	≤ 50
CN1CCN(Cc2ccc(-c3c(-c4ccc(C#N)cc4)cc(OC[C@@H]4CCNC4)c4cncn34)cc2)CC1 [Example 19, 4-{5-{4-[(4-methylpiperazin-1-yl)methyl]phenyl}-8-[(3R)-pyrrolidin-3-ylmethoxy]imidazo-[1,5-a]pyridin-6-yl}benzonitrile]	≤ 50
Cc1ccc(-c2c(-c3ccc(C#N)cc3)cc(OC[C@@H]3CCN(C)C3)c3cncn23)cc1 [Example 20, 4-(5-(4-methylphenyl)-8-{[(3R)-1-methylpyrrolidin-3-yl]methoxy}imidazo[1,5-a]pyridin-6-yl)benzonitrile]	≤ 50
CN1CCC[C@@H](COc2nc(-c3ccc(C#N)cc3)c(-c3ccc4c(cnn4C)c3)n3cncc23)C1 [Example 23, 4-(5-(1-methyl-1H-indazol-5-yl)-8-{[(3R)-1-methylpiperidin-3-yl]methoxy}imidazo[1,5-a]pyrazin-6-yl)benzonitrile]	≤ 50
CN1CCC[C@@H](COc2nc(-c3ccc(C#N)cc3)c(-c3ccc4c(c3)ncn4C)n3cncc23)C1 [Example 28, 4-(5-(1-methyl-1H-benzimidazol-5-yl)-8-{[(3R)-1-methylpiperidin-3-yl]methoxy}imidazo[1,5-a]pyrazin-6-yl)benzonitrile]	≤ 50
CN1CCC[C@@H](COc2nc(-c3ccc(C#N)cc3)c(-c3cnc4c(c3)OCCN4C)n3cncc23)C1 [Example 29, 4-(5-(4-methyl-3,4-dihydro-2H-pyrido[3,2-b][1,4]oxazin-7-yl)-8-{[(3R)-1-methylpiperidin-3-yl]methoxy}imidazo[1,5-a]pyrazin-6-yl)benzonitrile]	≤ 50
CN1CCC[C@@H](COc2nc(-c3ccc(C#N)cc3)c(-c3cc4oc(=O)n(C)c4cc3F)n3cncc23)C1 [Example 30, 4-(5-(5-fluoro-3-methyl-2-oxo-2,3-dihydro-1,3-benzoxazol-6-yl)-8-{[(3R)-1-methylpiperidin-3-yl]methoxy}imidazo[1,5-a]pyrazin-6-yl)benzonitrile]	≤ 50
CN1CCC[C@@H](COc2nc(-c3ccc(C#N)cc3)c(-c3ccc4scnc4c3)n3cncc23)C1 [Example 34, (R)-4-(5-(benzo[d]thiazol-5-yl)-8-((1-methylpiperidin-3-yl)methoxy)imidazo[1,5-a]pyrazin-6-yl)benzonitrile]	≤ 50
Cc1nc2cc(-c3c(-c4ccc(C#N)cc4)nc(OC[C@@H]4CCCN(C)C4)c4cncn34)ccc2s1 [Example 35, 4-(5-(2-methyl-1,3-benzothiazol-5-yl)-8-{[(3R)-1-methylpiperidin-3-yl]methoxy}imidazo[1,5-a]pyrazin-6-yl)benzonitrile]	≤ 50
CN1CCC[C@@H](COc2nc(-c3ccc(C#N)c(F)c3)c(-c3cnc4c(cnn4C)c3)n3cncc23)C1 [Example 36, 2-fluoro-4-[8-{[(3R)-1-methylpiperidin-3-yl]methoxy}-5-(1-methyl-1H-1-pyrazolo[3,4-b]pyridin-5-yl)imidazo[1,5-a]pyrazin-6-yl]benzonitrile]	≤ 50
Cn1ncc2cc(-c3c(-c4ccc(C#N)cc4)nc(OC[C@@H]4CCCN(CCO)C4)c4cncn34)cnc21 [Example 37, 4-[8-{[(3R)-1-(2-hydroxyethyl)piperidin-3-yl]methoxy}-5-(1-methyl-1H-1-pyrazolo[3,4-b]pyridin-5-yl)imidazo[1,5-a]pyrazin-6-yl]benzonitrile]	≤ 50
